Source: the supplement of paper PMC10307832

How the values were obtained:
Experiment in all cases: relative viability (nuclei count vs DMSO), 5 days (fraction); higher = more cells survive
[1] = tested on: NCI-H1651
How it was run: (§1)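 Five library-drug doses in √10 steps were combined with a fixed anchor-drug dose, or a single drug was given alone, by pin tool to lung cancer cell lines in 1536-well plates the day after seeding. Nuclei were stained and counted after 5 days. Relative viability is the nuclei count in treated wells over that in vehicle wells, taken as the median of duplicate plates.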

[2] = tested on: RERF-LC-KJ
How it was run: as §1

[3] = tested on: PC-14
How it was run: as §1

[4] = tested on: NCI-H661
How it was run: as §1

[5] = tested on: NCI-H3122
How it was run: as §1

[6] = tested on: NCI-H460
How it was run: as §1

[7] = tested on: NCI-H727
How it was run: as §1

[8] = tested on: NCI-H520
How it was run: as §1

[9] = tested on: SK-MES-1
How it was run: as §1

[10] = tested on: NCI-H522
How it was run: as §1

[11] = tested on: SW 900
How it was run: as §1

[12] = tested on: LCLC-103H
How it was run: as §1

[13] = tested on: NCI-H1355
How it was run: as §1

[14] = tested on: NCI-H2347
How it was run: as §1

[15] = tested on: NCI-H1755
How it was run: as §1

[16] = tested on: NCI-H322M
How it was run: as §1

[17] = tested on: LXF-289
How it was run: as §1

[18] = tested on: NCI-H1915
How it was run: as §1

[19] = tested on: NCI-H441
How it was run: as §1

[20] = tested on: NCI-H596
How it was run: as §1

With `COc1nc(C)cnc1NS(=O)(=O)c1cccnc1-c1ccc(-c2nnco2)cc1` [Zibotentan] + O=C(CCCCCCC(=O)Nc1ccccc1)NO [Vorinostat] (partner 1 µM) the relative viability ([1]; first compound 0.08 µM) was 0.543, the relative viability ([1]; first compound 0.253 µM) was 0.492 and the relative viability ([1]; first compound 0.8 µM) was 0.559. The relative viability ([1]; first compound 2.53 µM) was 0.461, the relative viability ([2]; first compound 0.08 µM) was 0.847 and the relative viability ([2]; first compound 0.253 µM) was 0.541. For the same compound, the relative viability ([2]; first compound 0.8 µM) was 0.74, the relative viability ([2]; first compound 2.53 µM) was 0.679 and the relative viability ([3]; first compound 0.08 µM) was 0.937. For the same compound, the relative viability ([3]; first compound 0.253 µM) was 0.421, the relative viability ([3]; first compound 0.8 µM) was 0.81 and the relative viability ([3]; first compound 2.53 µM) was 0.77. It also gave a relative viability ([4]; first compound 0.08 µM) of 0.823, a relative viability ([4]; first compound 0.253 µM) of 0.766 and a relative viability ([4]; first compound 0.8 µM) of 0.827. The relative viability ([4]; first compound 2.53 µM) was 0.844, the relative viability ([5]; first compound 0.08 µM) was 1.05 and the relative viability ([5]; first compound 0.253 µM) was 1.03. The relative viability ([5]; first compound 0.8 µM) was 1.02, the relative viability ([5]; first compound 2.53 µM) was 1.02 and the relative viability ([6]; first compound 0.08 µM) was 0.673. It also gave a relative viability ([6]; first compound 0.253 µM) of 0.541, a relative viability ([6]; first compound 0.8 µM) of 0.739 and a relative viability ([6]; first compound 2.53 µM) of 0.719. For the same compound, the relative viability ([7]; first compound 0.08 µM) was 1.19, the relative viability ([7]; first compound 0.253 µM) was 1.24 and the relative viability ([7]; first compound 0.8 µM) was 1.07. For the same compound, the relative viability ([7]; first compound 2.53 µM) was 1.19, the relative viability ([8]; first compound 0.08 µM) was 0.778 and the relative viability ([8]; first compound 0.253 µM) was 0.799. The relative viability ([8]; first compound 0.8 µM) was 0.794, the relative viability ([8]; first compound 2.53 µM) was 0.711 and the relative viability ([9]; first compound 0.08 µM) was 1.18. It also gave a relative viability ([9]; first compound 0.253 µM) of 0.793, a relative viability ([9]; first compound 0.8 µM) of 1.09 and a relative viability ([9]; first compound 2.53 µM) of 1.12. It also gave a relative viability ([10]; first compound 0.08 µM) of 0.928, a relative viability ([10]; first compound 0.253 µM) of 0.887 and a relative viability ([10]; first compound 0.8 µM) of 1.03. It also gave a relative viability ([10]; first compound 2.53 µM) of 0.946, a relative viability ([11]; first compound 0.08 µM) of 0.559 and a relative viability ([11]; first compound 0.253 µM) of 0.404. It also gave a relative viability ([11]; first compound 0.8 µM) of 0.552, a relative viability ([11]; first compound 2.53 µM) of 0.588 and a relative viability ([12]; first compound 0.08 µM) of 0.801. For the same compound, the relative viability ([12]; first compound 0.253 µM) was 0.842, the relative viability ([12]; first compound 0.8 µM) was 0.722 and the relative viability ([12]; first compound 2.53 µM) was 0.839. The relative viability ([13]; first compound 0.08 µM) was 0.682, the relative viability ([13]; first compound 0.253 µM) was 0.584 and the relative viability ([13]; first compound 0.8 µM) was 0.657. For the same compound, the relative viability ([13]; first compound 2.53 µM) was 0.69, the relative viability ([14]; first compound 0.08 µM) was 0.622 and the relative viability ([14]; first compound 0.253 µM) was 0.566. It also gave a relative viability ([14]; first compound 0.8 µM) of 0.658, a relative viability ([14]; first compound 2.53 µM) of 0.744 and a relative viability ([15]; first compound 0.08 µM) of 0.851. The relative viability ([15]; first compound 0.253 µM) was 0.742, the relative viability ([15]; first compound 0.8 µM) was 0.803 and the relative viability ([15]; first compound 2.53 µM) was 0.818. It also gave a relative viability ([16]; first compound 0.08 µM) of 1.03, a relative viability ([16]; first compound 0.253 µM) of 0.748 and a relative viability ([16]; first compound 0.8 µM) of 0.895. The relative viability ([16]; first compound 2.53 µM) was 0.93, the relative viability ([17]; first compound 0.08 µM) was 0.769 and the relative viability ([17]; first compound 0.253 µM) was 0.713. It also gave a relative viability ([17]; first compound 0.8 µM) of 0.766, a relative viability ([17]; first compound 2.53 µM) of 0.746 and a relative viability ([18]; first compound 0.08 µM) of 0.679. The relative viability ([18]; first compound 0.253 µM) was 0.53, the relative viability ([18]; first compound 0.8 µM) was 0.548 and the relative viability ([18]; first compound 2.53 µM) was 0.572. The relative viability ([19]; first compound 0.08 µM) was 0.78, the relative viability ([19]; first compound 0.253 µM) was 0.721 and the relative viability ([19]; first compound 0.8 µM) was 0.783. The relative viability ([19]; first compound 2.53 µM) was 0.794, the relative viability ([20]; first compound 0.08 µM) was 0.568 and the relative viability ([20]; first compound 0.253 µM) was 0.533. It also gave a relative viability ([20]; first compound 0.8 µM) of 0.591 and a relative viability ([20]; first compound 2.53 µM) of 0.713.
